Test results reported in patent US20190298796A1, “Therapeutic Compositions from the Brevinin-1 Family of Peptides and Uses Thereof” (priority 2016, published 2019).
Values after ≈ are worked out from the molar mass of the structure shown. Where two headings read alike, the source gives them in different places. Positions of bridges follow the written chain, without caps; N, C: chain ends. Residues, ends and D or L forms follow the SMILES beside them.

What was measured:
S. aureus (MTCC 9542) = test: SYTOX green uptake, confocal imaging of membrane permeation; format: cell-based, Staphylococcus aureus; details: MIC concentration, 10 min, CLSM
Experimental: (§1) Imaging the bacterial membrane permeation by the amidated peptides. In order to find out the membrane damage by the peptides, if any, we used SYTOX green uptake assay. MIC concentrations of B1/1 CONH2 and B1/2 CONH2 were prepared in sodium phosphate buffer (10 mM, pH: 7.4). Overnight cultures of S. aureus (MTCC 9542) and V. cholerae (MCV09) were re-inoculated in fresh MHB to attain an OD600-0.6. The bacterial suspension was centrifuged (3000×g) for 5 min and the pellet was washed twice with the sodium phosphate buffer (10 mM, pH: 7.4). The pellet was resuspended in the same buffer to an OD600-0.06. Diluted culture was incubated with the peptides for 10 min at 37° C. 100 μl suspensions were poured on to poly-L-lysine coated glass slides and incubated at 37° c. for 30 minutes. The glass slides were washed twice in the same buffer to remove unattached cells. After washing 50 μl of DAPI (10 μg/ml) was smeared on the glass slide and incubated for 30 minutes at 37° C. The slides were washed twice with the buffer and SYTOX green (0.1 μM) was smeared and incubated for 15 minutes at room temperature, washed twice and dried. A drop of glycerol was placed on the slides, mounted with a cover slip and sealed. Controls were run in the presence of peptide solvents. The slides were subjected to confocal laser scanning microscopy (CLSM).

E .coli. ATCC 25922 = format: cell-based, Escherichia coli
From the text: (§2) Antimicrobial activity: Broth dilution method [39] was used to assess the antimicrobial activity of the peptides. Bacterial strains used for in vitro antibacterial assay were Staphylococcus aureus (MTCC 9542), Bacillus subtilis (MTCC 14416), Bacillus coagulans (ATCC 7050), Methicillin-resistant Staphylococcus aureus (MRSA) (ATCC 43300), Streptococcus mutans (MTCC 497), Streptococcus gordonii (MTCC 2695), Vibrio cholerae (MCV09), Escherichia coli (ATCC 25922), Vancomycin-resistant enterococcus (VRE) (ATCC 29212) and gram-negative fish pathogens Aeromonas hydrophila (ATCC 7966) and Aeromonas sobria (ATCC 43979). Bacterial cultures were grown in Muller Hinton broth (MHB) (Hi-media) by overnight incubation at 37° C. with constant shaking. Microbial cultures having 10^6 CFU/ml were made from OD600: 0.6 cultures. 400 μM stock solutions of peptides were prepared in autoclaved double distilled water and diluted in MHB to make concentrations ranging from 0.7 to 100 μM. Bacterial inoculum without peptide was used as the negative control.

MRSA ATCC 43300 = format: cell-based, Methicillin-resistant Staphylococcus aureus; details: lowest concentration killing entire bacteria, 24 hrs
From the text: as §2

[1] = test system: Staphylococcus aureus MTCC 9542; format: cell-based; details: lowest peptide concentration required to kill entire bacteria, 24 hrs, NA = not active up to the highest concentration tested
From the text: as §2

VRE ATCC 29212 = details: lowest concentration killing entire bacteria, 24 hrs
From the text: as §2

[2] = test system: Streptococcus gordonii MTCC 2695; format: cell-based; details: NA = not active up to the highest concentration tested
From the text: as §2

[3] = test system: Streptococcus mutans MTCC 497; format: cell-based; details: NA = not active up to the highest concentration tested
From the text: as §2

human erythrocytes = format: cell-based; details: 60 min
Experimental: Hemolytic Activity: Hemolytic assay was carried out as previously described. Briefly, 10% (v/v) suspensions of fresh human erythrocytes in phosphate buffered saline (pH 7.2) were incubated with different concentrations (100 μM-0.7 μM) of B1/1 COOH & B1/2 COOH, B1/1 CONH2 & B1/2 CONH2 and cyclic B1/1 CONH2 & cyclic B1/2 CONH2 and incubated at 3^7° C. for 60 min. The cells were centrifuged (3000×g) for 5 min, and absorbance of the supernatant was measured at 595 nm. Hemolysis caused by 10% Triton X-100 was taken as positive control. Percentage hemolysis was calculated by measuring the mean amount of hemoglobin released as a result of lysis of erythrocyte from three independent experiments.

V. cholerae (MCV09) = test: SYTOX green uptake, confocal imaging of membrane permeation; format: cell-based, Vibrio cholerae; details: MIC concentration, 10 min, CLSM
Experimental: as §1

[4] = test system: Aeromonas hydrophilia ATCC 7966; format: cell-based, Aeromonas hydrophila; details: Aeromonas hydrophilia ATCC 7966 (fish pathogen); NA = not active up to the highest concentration tested
From the text: as §2

[5] = test system: Bacillus coagulans ATCC 7050; format: cell-based; details: lowest concentration killing entire bacteria, 24 hrs
From the text: as §2

[6] = test system: V. cholerae cells (MCV09); test: Atomic Force Microscopy of surface morphology; format: cell-based, Vibrio cholerae; details: MIC, 15 min
Experimental: Visualizing the changes in surface morphology of bacteria: Atomic Force Microscopy. This was incorporated to get more insights into the mechanism of action of the peptides and to confirm the results obtained from SEM. V. cholerae cells (MCV09) were grown in MHB at 37° C., washed, and suspended in sodium phosphate buffer (10 mM, pH: 7.4) (OD600-0.06). Diluted bacteria were incubated with the MICs of B1/1 CONH2 and B1/2 CONH2 for 15 min. The control sample was prepared without the peptides. Samples were prepared by drop casting 20 μL of a solution on the freshly cleaved mica surface and dried under air. AFM analyses were carried out on Multimode SPM (Veeco Nanoscope V). Imaging was done under ambient conditions in tapping mode. The probe used for imaging was antimony doped silicon cantilever with a resonant frequency of 300 kHz and a spring constant of 40 Nm^−1.

[7] = test system: Bacillus subtilis MTCC 14416; format: cell-based; details: lowest concentration killing entire bacteria, 24 hrs
From the text: as §2

Vibrio cholerae MCV09 = format: cell-based; details: NA = not active up to the highest concentration tested
From the text: as §2

[8] = test system: Aeromonas sobria ATCC 43979; format: cell-based; details: Aeromonas sobria ATCC 43979 (fish pathogen); NA = not active up to the highest concentration tested
From the text: as §2

gram-negative bacteria = test: MIC range over the tested gram-negative bacteria; format: cell-based
From the text: as §2

[9] = at the peptide's MIC for Aeromonas sobria ATCC 43979 (MIC in parenthesis)
[10] = at the peptide's MIC for Staphylococcus aureus MTCC 9542 (MIC in parenthesis)
[11] = at the peptide's MIC for Vibrio cholerae MCV09 (MIC in parenthesis)

Structure (SMILES) | SYTOX green fluorescence signal (membrane permeabilization) (S. aureus (MTCC 9542)) | MIC (E .coli. ATCC 25922) | MIC (MRSA ATCC 43300) | MIC [1] | MIC (VRE ATCC 29212) | MIC [2] | MIC [3] | Percentage hemolysis at MIC (human erythrocytes; [9]) | Percentage hemolysis at MIC (human erythrocytes; [10]) | Percentage hemolysis at MIC (human erythrocytes; [11]) | SYTOX green fluorescence signal (membrane permeabilization) (V. cholerae (MCV09)) | MIC [4] | MIC [5] | Changes in surface morphology (AFM) [6] | MIC [7] | MIC (Vibrio cholerae MCV09) | MIC [8] | Activity against gram-negative bacteria (MIC range) (gram-negative bacteria)
CC[C@H](C)[C@H](NC(=O)CNC(=O)[C@@H]1CCCN1C(=O)[C@H](Cc1ccccc1)NC(=O)[C@@H](N)Cc1ccccc1)C(=O)N[C@H](C(=O)N[C@@H](CCCCN)C(=O)N[C@H](C(=O)N[C@@H](C)C(=O)N[C@@H](CO)C(=O)N[C@@H](C)C(=O)N[C@H](C(=O)N[C@@H](CC(C)C)C(=O)N1CCC[C@H]1C(=O)N[C@H](C(=O)N[C@@H](C)C(=O)N[C@H](C(=O)N[C@@H](CS)C(=O)N[C@@H](C)C(=O)N[C@H](C(=O)N[C@H](C(=O)N[C@@H](CCCCN)C(=O)N[C@@H](CCCNC(=N)N)C(=O)N[C@@H](CS)C(N)=O)[C@@H](C)O)[C@@H](C)CC)[C@@H](C)CC)[C@@H](C)O)[C@@H](C)CC)C(C)C)[C@@H](C)CC [B1/1 CONH2] (H-FFPGIIKVASAILPTAICAITKRC-NH2; N-terminus assumed) | marked increase in fluorescence signal | 29 µM (≈ 73.5 µg/mL) | 2.5 µM (≈ 6.33 µg/mL) | 1.5 µM (≈ 3.8 µg/mL) | 25 µM (≈ 63.3 µg/mL) | 19 µM (≈ 48.1 µg/mL) | 36 µM (≈ 91.2 µg/mL) | 25% | 10% | 20% | marked increase in fluorescence signal | 100 µM (≈ 253 µg/mL) | 8.2 µM (≈ 20.8 µg/mL) | changes in surface morphology and aggregation | 36.3 µM (≈ 92 µg/mL) | 10.3 µM (≈ 26.1 µg/mL) | 12.5 µM (≈ 31.7 µg/mL) | –
CC[C@H](C)[C@H](NC(=O)CNC(=O)[C@@H]1CCCN1C(=O)[C@H](Cc1ccccc1)NC(=O)[C@@H](N)Cc1ccccc1)C(=O)N[C@H](C(=O)N[C@@H](CCCCN)C(=O)N[C@H](C(=O)N[C@@H](C)C(=O)N[C@@H](CO)C(=O)N[C@@H](C)C(=O)N[C@H](C(=O)N[C@@H](CC(C)C)C(=O)N1CCC[C@H]1C(=O)N[C@H](C(=O)N[C@@H](C)C(=O)N[C@H](C(=O)N[C@@H](CS)C(=O)N[C@@H](C)C(=O)N[C@H](C(=O)N[C@H](C(=O)N[C@@H](CCCCN)C(=O)N[C@@H](CCCNC(=N)N)C(=O)N[C@@H](CS)C(=O)O)[C@@H](C)O)[C@@H](C)CC)[C@@H](C)CC)[C@@H](C)O)[C@@H](C)CC)C(C)C)[C@@H](C)CC [B1/1 COOH] (H-FFPGIIKVASAILPTAICAITKRC-OH; N-terminus assumed) | – | – | 25 µM (≈ 63.4 µg/mL) | 9.5 µM (≈ 24.1 µg/mL) | 50 µM (≈ 127 µg/mL) | – | – | – | 20% | – | – | – | 25 µM (≈ 63.4 µg/mL) | – | 98 µM (≈ 248 µg/mL) | – | – | not with gram-negative bacteria
CC[C@H](C)[C@H](NC(=O)CNC(=O)[C@@H]1CCCN1C(=O)[C@H](Cc1ccccc1)NC(=O)[C@@H](N)Cc1ccccc1)C(=O)N[C@H](C(=O)N[C@@H](CCCCN)C(=O)N[C@H](C(=O)N[C@@H](C)C(=O)NCC(=O)N[C@@H](C)C(=O)N[C@H](C(=O)N[C@@H](CC(C)C)C(=O)N1CCC[C@H]1C(=O)N[C@H](C(=O)N[C@@H](C)C(=O)N[C@H](C(=O)N[C@@H](CS)C(=O)N[C@@H](C)C(=O)N[C@H](C(=O)N[C@H](C(=O)N[C@@H](CCCCN)C(=O)N[C@@H](CCCNC(=N)N)C(=O)N[C@@H](CS)C(N)=O)[C@@H](C)O)[C@@H](C)CC)[C@@H](C)CC)[C@@H](C)O)[C@@H](C)CC)C(C)C)[C@@H](C)CC [B1/2 CONH2] (H-FFPGIIKVAGAILPTAICAITKRC-NH2; N-terminus assumed) | marked increase in fluorescence signal | 36.2 µM (≈ 90.6 µg/mL) | 5 µM (≈ 12.5 µg/mL) | 2.5 µM (≈ 6.26 µg/mL) | 25 µM (≈ 62.6 µg/mL) | 25 µM (≈ 62.6 µg/mL) | 40 µM (≈ 100 µg/mL) | 25% | 8% | 25% | marked increase in fluorescence signal | 100 µM (≈ 250 µg/mL) | 12.5 µM (≈ 31.3 µg/mL) | changes in surface morphology and aggregation | 30 µM (≈ 75.1 µg/mL) | 12 µM (≈ 30 µg/mL) | 12.5 µM (≈ 31.3 µg/mL) | –
CC[C@H](C)[C@H](NC(=O)CNC(=O)[C@@H]1CCCN1C(=O)[C@H](Cc1ccccc1)NC(=O)[C@@H](N)Cc1ccccc1)C(=O)N[C@H](C(=O)N[C@@H](CCCCN)C(=O)N[C@H](C(=O)N[C@@H](C)C(=O)N[C@@H](CO)C(=O)N[C@@H](C)C(=O)N[C@H](C(=O)N[C@@H](CC(C)C)C(=O)N1CCC[C@H]1C(=O)N[C@H](C(=O)N[C@@H](C)C(=O)N[C@H](C(=O)N[C@H]1CSSC[C@@H](C(N)=O)NC(=O)[C@H](CCCNC(=N)N)NC(=O)[C@H](CCCCN)NC(=O)[C@H]([C@@H](C)O)NC(=O)[C@H]([C@@H](C)CC)NC(=O)[C@H](C)NC1=O)[C@@H](C)CC)[C@@H](C)O)[C@@H](C)CC)C(C)C)[C@@H](C)CC [Cyclic B1/1 CONH2] (H-FFPGIIKVASAILPTAICAITKRC-NH2; disulfide 18-24; N-terminus assumed) | – | 50 µM (≈ 127 µg/mL) | 5 µM (≈ 12.7 µg/mL) | 3 µM (≈ 7.59 µg/mL) | 25 µM (≈ 63.3 µg/mL) | 25 µM (≈ 63.3 µg/mL) | 40 µM (≈ 101 µg/mL) | 10% | 11% | 20% | – | 100 µM (≈ 253 µg/mL) | 25 µM (≈ 63.3 µg/mL) | – | 45 µM (≈ 114 µg/mL) | 12.5 µM (≈ 31.6 µg/mL) | 3 µM (≈ 7.59 µg/mL) | –
CC[C@H](C)[C@H](NC(=O)CNC(=O)[C@@H]1CCCN1C(=O)[C@H](Cc1ccccc1)NC(=O)[C@@H](N)Cc1ccccc1)C(=O)N[C@H](C(=O)N[C@@H](CCCCN)C(=O)N[C@H](C(=O)N[C@@H](C)C(=O)NCC(=O)N[C@@H](C)C(=O)N[C@H](C(=O)N[C@@H](CC(C)C)C(=O)N1CCC[C@H]1C(=O)N[C@H](C(=O)N[C@@H](C)C(=O)N[C@H](C(=O)N[C@H]1CSSC[C@@H](C(N)=O)NC(=O)[C@H](CCCNC(=N)N)NC(=O)[C@H](CCCCN)NC(=O)[C@H]([C@@H](C)O)NC(=O)[C@H]([C@@H](C)CC)NC(=O)[C@H](C)NC1=O)[C@@H](C)CC)[C@@H](C)O)[C@@H](C)CC)C(C)C)[C@@H](C)CC [Cyclic B1/2 CONH2] (H-FFPGIIKVAGAILPTAICAITKRC-NH2; disulfide 18-24; N-terminus assumed) | – | 50 µM (≈ 125 µg/mL) | 7 µM (≈ 17.5 µg/mL) | 3 µM (≈ 7.5 µg/mL) | 30 µM (≈ 75 µg/mL) | 25 µM (≈ 62.5 µg/mL) | 40 µM (≈ 100 µg/mL) | 12% | 15% | 25% | – | 50 µM (≈ 125 µg/mL) | 29 µM (≈ 72.5 µg/mL) | – | 35 µM (≈ 87.5 µg/mL) | 12.5 µM (≈ 31.3 µg/mL) | 3 µM (≈ 7.5 µg/mL) | –
